Experimental findings from PubChem BioAssay AID212 (DTP/NCI, 2004) are described below.

Several values for one entry are separate records, joined by “and”; a condition that tells them apart may be missing. Equal values may be shown once. Records with an inconclusive call do not appear.

The test has as its system BDF1 mice, colon carcinoma 38 sc, T/C %. In words: NCI In Vivo Anticancer Drug Screen. Data for tumor model Colon Carcinoma 38 (subcutaneous) in B6D2F1 (BDF1) mice. In a few lines:
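T/C readout: treated group (T) measurement over vehicle control group (C) measurement. Endpoint is survival or tumor size in mice bearing a transplanted tumor.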

Where [1] appears, read: endpoint: median tumor weight (est.), dose: 3.0 mg/kg/injection, schedule: Q07DX002 (ip), vehicle: Klucel (hydroxypropylcellulose) (HPC), higher = larger tumour.
The mark [2] stands for this setting: endpoint: median tumor weight (est.), dose: 6.0 mg/kg/injection, schedule: Q07DX002 (ip), vehicle: Klucel (hydroxypropylcellulose) (HPC), higher = larger tumour.
Setting [3] is: endpoint: median tumor weight (est.), dose: 12.0 mg/kg/injection, schedule: Q07DX002 (ip), vehicle: Klucel (hydroxypropylcellulose) (HPC), higher = larger tumour.
The mark [4] stands for this setting: endpoint: median tumor weight (est.), dose: 0.25 mg/kg/injection, schedule: Q07DX002 (ip), vehicle: saline, higher = larger tumour.
Where [5] appears, read: endpoint: median tumor weight (est.), dose: 25.0 mg/kg/injection, schedule: Q07DX002 (ip), vehicle: saline with Tween-80, higher = larger tumour.
Setting [6] is: endpoint: median tumor weight (est.), dose: 50.0 mg/kg/injection, schedule: Q07DX002 (ip), vehicle: saline with Tween-80, higher = larger tumour.
[7] abbreviates: endpoint: median tumor weight (est.), dose: 100.0 mg/kg/injection, schedule: Q07DX002 (ip), vehicle: saline with Tween-80, higher = larger tumour.
[8] abbreviates: endpoint: median tumor weight (est.), dose: 200.0 mg/kg/injection, schedule: Q07DX002 (ip), vehicle: saline with Tween-80, higher = larger tumour.
The mark [9] stands for this setting: endpoint: median tumor weight (est.), dose: 200.0 mg/kg/injection, schedule: Q07DX002 (ip), vehicle: saline, higher = larger tumour.
Setting [10] is: endpoint: median tumor weight (est.), dose: 800.0 mg/kg/injection, schedule: Q07DX002 (ip), vehicle: saline, higher = larger tumour.
The mark [11] stands for this setting: endpoint: median tumor weight (est.), dose: 50.0 mg/kg/injection, schedule: Q07DX002 (ip), vehicle: saline, higher = larger tumour.
The mark [12] stands for this setting: endpoint: median tumor weight (est.), dose: 100.0 mg/kg/injection, schedule: Q07DX002 (ip), vehicle: saline, higher = larger tumour.
[13] abbreviates: endpoint: median tumor weight (est.), dose: 400.0 mg/kg/injection, schedule: Q07DX002 (ip), vehicle: saline, higher = larger tumour.
[14] abbreviates: endpoint: median tumor weight (est.), dose: 25.0 mg/kg/injection, schedule: Q07DX003 (ip), vehicle: saline with Tween-80, higher = larger tumour.
[15] abbreviates: endpoint: median tumor weight (est.), dose: 50.0 mg/kg/injection, schedule: Q07DX002 (ip), vehicle: Klucel (hydroxypropylcellulose) (HPC), higher = larger tumour.

Turning to `C[CH2][Pb]([CH2]C)([CH2]C)[O]C(=O)COc1ccccc1`, the T/C by setting is: (endpoint: median tumor weight (est.), dose: 0.75 mg/kg/injection, schedule: Q07DX002 (ip), vehicle: Klucel (hydroxypropylcellulose) (HPC), higher = larger tumour) 166 % of control; under setting [1], 151 % of control; under setting [2], 118 % of control; under setting [3], 176 % of control.
With `CC(=O)[O][Pb]([O]C(C)=O)([c]1ccccc1)[c]1ccccc1`, the T/C (endpoint: median tumor weight (est.), dose: 12.5 mg/kg/injection, schedule: Q07DX002 (ip), vehicle: Klucel (hydroxypropylcellulose) (HPC), higher = larger tumour) is 216 % of control and the T/C (endpoint: median tumor weight (est.), dose: 200.0 mg/kg/injection, schedule: Q07DX002 (ip), vehicle: Klucel (hydroxypropylcellulose) (HPC), higher = larger tumour) is 72 % of control.
Turning to `O=c1[nH]cnc2c1ncn2C1OC(CO)C(O)C1O` (stereo unspecified), the T/C runs as follows: (endpoint: median survival time, dose: 250.0 mg/kg/injection, schedule: Q04DX004 (ip), vehicle: saline with Tween-80, higher = longer survival) 108 % of control; (endpoint: median survival time, dose: 250.0 mg/kg/injection, schedule: Q04DX004 (ip), vehicle: saline, higher = longer survival) 107 % of control; (endpoint: median survival time, dose: 500.0 mg/kg/injection, schedule: Q04DX004 (ip), vehicle: saline with Tween-80, higher = longer survival) 121 % of control; (endpoint: median survival time, dose: 500.0 mg/kg/injection, schedule: Q04DX004 (ip), vehicle: saline, higher = longer survival) 120 % of control; (endpoint: median survival time, dose: 1000.0 mg/kg/injection, schedule: Q04DX004 (ip), vehicle: saline with Tween-80, higher = longer survival) 60 % of control; (endpoint: median survival time, dose: 1000.0 mg/kg/injection, schedule: Q04DX004 (ip), vehicle: saline, higher = longer survival) 58 % of control.
In the case of `CC(=O)OCC12CCC(C)=CC1OC1C(OS(C)(=O)=O)C(=O)C2(C)C12CO2` (stereo unspecified), the T/C is 189 % of control under setting [4]; 98 % of control (endpoint: median tumor weight (est.), dose: 5.0 mg/kg/injection, schedule: Q07DX002 (ip), vehicle: saline, higher = larger tumour); 88 % of control (endpoint: median tumor weight (est.), dose: 10.0 mg/kg/injection, schedule: Q07DX002 (ip), vehicle: saline, higher = larger tumour).
Turning to `CCC(C)C(=O)OC1C(=O)OC2CC3C(C)=CC(=O)C(O)C3(C)C3C4(O)OCC23C1C(C)C4O` (stereo unspecified), the T/C runs as follows: (endpoint: median tumor weight (est.), dose: 0.5 mg/kg/injection, schedule: Q07DX002 (ip), vehicle: suspension in saline, higher = larger tumour) 90 % of control; (endpoint: median tumor weight (est.), dose: 1.0 mg/kg/injection, schedule: Q07DX002 (ip), vehicle: suspension in saline, higher = larger tumour) 77 % of control; (endpoint: median tumor weight (est.), dose: 2.0 mg/kg/injection, schedule: Q07DX002 (ip), vehicle: suspension in saline, higher = larger tumour) 58 % of control; (endpoint: median tumor weight (est.), dose: 4.0 mg/kg/injection, schedule: Q07DX002 (ip), vehicle: suspension in saline, higher = larger tumour) 88 % of control; (endpoint: median tumor weight (est.), dose: 8.0 mg/kg/injection, schedule: Q07DX002 (ip), vehicle: suspension in saline, higher = larger tumour) 44 % of control.
As for `Cc1ccccc1N(CC1CO1)CC1CO1` (stereo unspecified), the T/C was 81 % of control under setting [5]; 104 % of control under setting [6]; 57 % of control under setting [7]; 123 % of control under setting [8]; 154 % of control under setting [9]; 89 % of control under setting [10].
Turning to `Cc1ccccc1CN1C2=NCCN2C(=O)C2=C1CCN(S(=O)(=O)c1ccc(Cl)c(S(N)(=O)=O)c1)C2`, the T/C by setting is: under setting [11], 97 % of control; under setting [12], 86 % of control; under setting [9], 91 % of control; under setting [13], 96 % of control; (endpoint: median tumor weight (est.), dose: 450.0 mg/kg/injection, schedule: Q07DX002 (ip), vehicle: saline, higher = larger tumour) 84 % of control; (endpoint: median tumor weight (est.), dose: 900.0 mg/kg/injection, schedule: Q07DX002 (ip), vehicle: saline, higher = larger tumour) 100 % of control. Moreover, the T/C (endpoint: median tumor weight (est.), dose: 1800.0 mg/kg/injection, schedule: Q07DX002 (ip), vehicle: saline, higher = larger tumour) was 110 % of control.
For `O=C(NO)c1ccccc1`, the T/C is 70 % of control (endpoint: median tumor weight (est.), dose: 25.0 mg/kg/injection, schedule: Q07DX002 (ip), vehicle: saline, higher = larger tumour); 168 % of control (endpoint: median tumor weight (est.), dose: 25.0 mg/kg/injection, schedule: Q07DX002 (ip), vehicle: suspension in saline, higher = larger tumour); 83 % of control under setting [11]; 63 % of control under setting [12]; 80 % of control under setting [9]; 165 % of control (endpoint: median tumor weight (est.), dose: 200.0 mg/kg/injection, schedule: Q07DX002 (ip), vehicle: suspension in saline, higher = larger tumour). Moreover, the T/C by setting is: under setting [13], 70 % of control; (endpoint: median tumor weight (est.), dose: 400.0 mg/kg/injection, schedule: Q07DX002 (ip), vehicle: suspension in saline, higher = larger tumour) 103 % of control; under setting [10], 89 % of control; (endpoint: median tumor weight (est.), dose: 800.0 mg/kg/injection, schedule: Q07DX002 (ip), vehicle: suspension in saline, higher = larger tumour) 105 % of control.
Regarding `CC(=O)O[C@@H]1CO[C@H]2O[C@H]3[C@@H](C(C=O)=C[C@H](O)[C@@H]4C5=C(C(C)C)CC[C@]5(C)CC[C@@]34C)[C@@]2(O)C1=O`, the T/C by setting is: (endpoint: median tumor weight (est.), dose: 1.5 mg/kg/injection, schedule: Q07DX002 (ip), vehicle: Klucel (hydroxypropylcellulose) (HPC), higher = larger tumour) 57 % of control; under setting [1], 80 % of control; under setting [2], 61 % of control; under setting [3], 86 % of control.
On to `COC(=Nc1ccccc1)SSC(C)C`, for which the T/C by setting is: under setting [5], 99 % of control; under setting [6], 84 % of control; under setting [7], 88 % of control; under setting [8], 100 % of control; (endpoint: median tumor weight (est.), dose: 400.0 mg/kg/injection, schedule: Q07DX002 (ip), vehicle: saline with Tween-80, higher = larger tumour) 96 % of control.
`CC(=O)O[C@@H]1[C@@H](O)C2=C3[C@]4(C)[C@@H]1C(C)(C)C(=O)C[C@@H]4[C@]3(O)[C@H](OC(C)=O)[C@@]1(C[C@@H]1C)C2=O`: the T/C reads like this: (endpoint: median tumor weight (est.), dose: 3.12 mg/kg/injection, schedule: Q07DX003 (ip), vehicle: saline with Tween-80, higher = larger tumour) 97 % of control; (endpoint: median tumor weight (est.), dose: 6.25 mg/kg/injection, schedule: Q07DX003 (ip), vehicle: saline with Tween-80, higher = larger tumour) 93 % of control; under setting [14], 86 % of control; (endpoint: median tumor weight (est.), dose: 50.0 mg/kg/injection, schedule: Q07DX003 (ip), vehicle: saline with Tween-80, higher = larger tumour) 64 % of control.
For the molecule `CC1(O)C=CC(=O)C=C1`, the T/C (endpoint: median tumor weight (est.), dose: 50.0 mg/kg/injection, schedule: Q07DX002 (ip), vehicle: water, higher = larger tumour) is 114 % of control.
Consider `CCN(CC)CCOCc1cccc2c(=O)cc(-c3ccccc3)oc12`, for which the T/C under setting [15] was 66 % of control and the T/C (endpoint: median tumor weight (est.), dose: 100.0 mg/kg/injection, schedule: Q07DX002 (ip), vehicle: Klucel (hydroxypropylcellulose) (HPC), higher = larger tumour) is 57 % of control.
For the molecule `BrC[P+](CBr)(CBr)CBr`, the T/C is 48 % of control (endpoint: median tumor weight (est.), dose: 3.12 mg/kg/injection, schedule: Q07DX002 (ip), vehicle: saline with Tween-80, higher = larger tumour); 73 % of control (endpoint: median tumor weight (est.), dose: 6.25 mg/kg/injection, schedule: Q07DX002 (ip), vehicle: saline with Tween-80, higher = larger tumour); 82 % of control under setting [6]; 75 % of control and 77 % of control under setting [7].
Consider `OC(CBr)C(O)C(O)C(O)CBr` (stereo unspecified), for which the T/C is 56 % of control (endpoint: median tumor weight (est.), dose: 25.0 mg/kg/injection, schedule: Q07DX002 (ip), vehicle: Klucel (hydroxypropylcellulose) (HPC), higher = larger tumour); 85 % of control under setting [14]; 103 % of control under setting [15]; 75 % of control (endpoint: median tumor weight (est.), dose: 50.0 mg/kg/injection, schedule: Q07DX003 (ip), vehicle: Klucel (hydroxypropylcellulose) (HPC), higher = larger tumour); 122 % of control (endpoint: median tumor weight (est.), dose: 100.0 mg/kg/injection, schedule: Q07DX003 (ip), vehicle: Klucel (hydroxypropylcellulose) (HPC), higher = larger tumour); 32 % of control (endpoint: median tumor weight (est.), dose: 200.0 mg/kg/injection, schedule: Q07DX003 (ip), vehicle: Klucel (hydroxypropylcellulose) (HPC), higher = larger tumour). The T/C reads like this: (endpoint: median tumor weight (est.), dose: 200.0 mg/kg/injection, schedule: Q07DX003 (ip), vehicle: saline with Tween-80, higher = larger tumour) 123 % of control; (endpoint: median tumor weight (est.), dose: 400.0 mg/kg/injection, schedule: Q07DX003 (ip), vehicle: Klucel (hydroxypropylcellulose) (HPC), higher = larger tumour) 7 % of control; (endpoint: median tumor weight (est.), dose: 400.0 mg/kg/injection, schedule: Q07DX003 (ip), vehicle: saline with Tween-80, higher = larger tumour) 105 % of control.
Consider `N#Cc1cn(C2OC(CO)C(O)C2O)c2ncnc(N)c12` (stereo unspecified), for which the T/C is 91 % of control (endpoint: median tumor weight (est.), dose: 0.12 mg/kg/injection, schedule: Q07DX002 (ip), vehicle: saline, higher = larger tumour); 77 % of control under setting [4]; 86 % of control (endpoint: median tumor weight (est.), dose: 1.0 mg/kg/injection, schedule: Q07DX002 (ip), vehicle: saline, higher = larger tumour); 59 % of control (endpoint: median tumor weight (est.), dose: 2.0 mg/kg/injection, schedule: Q07DX002 (ip), vehicle: saline, higher = larger tumour).
